Data reported in patent US10981864B2, “Crystalline modifications of N-(4,5-bismethanesulfonyl-2-methylbenzoyl)guanidine hydrochloride and N-(4,5-bismethanesulfonyl-2-methylbenzoyl)guanidine salts” (MERCK PATENT GMBH, priority 2016, dated 2021).
Where “and” joins values, the source holds several entries; their conditions need not be identical. Equal values may be shown once.

Experiments:
[1] = system: human PASMCs; details: in vitro; cited from earlier work
[2] = system: SuHx rats; details: in vivo; cited from earlier work
[3] = Mini-dissolution in FeSSIF medium (pH 5.0), dissolved quantity by HPLC; type: physicochemical; details: for Dissolution levels in FeSSIF pH 5.0: FeSSIF pH 5.0, 37° C.; for Dissolution behavior compared to prior-art form HCl-H1: biorelevant media, Fed-state conditions (FeSSIF, pH 5.0)
Experimental: Approximately 10-12 mg of N-(4,5-bis-methanesulfonyl-2-methyl-benzoyl)guanidine form HCl-H1 (HCl salt hydrate form, prior-art), HCl salt anhydrous forms (forms HCl-A1, HCl-A2, HCl-A3), and novel salt forms [phosphate salt (form Phosphate-NF1), maleate salt (form Maleate-NF2), oxalate salt (form Oxalate-NF1), citrate salt (form citrate-NF1), sulfate salt (form Sulfate-NF3), succinate salt (form Succinate-NF1), malonate salt (form Malonate-NF1), besylate salt (form Besylate-NF1), p-tosylate salt (form Tosylate-NF1), malate salt (form Malate-NF1), fumarate salt (form Fumarate-NF1), tartrate salt (form Tartrate-NF1)] are weighed into 4 mL glass vials, and dispersed in 4 mL FeSSIF medium (pH 5.0, Acetate buffer capacity increased by factor 4 to ensure stable pH conditions over course of dissolution experiments).
All dispersions are agitated at 37° C. for up to 2 hours. At defined time intervals (5 min, 15 min, 60 min, 120 min), 0.4 mL sample aliquots of homogeneous dispersions are withdrawn by a syringe, and filtrated via syringe filter adapters (PTFE, 0.2 μm). Clear filtrates are diluted (1:20) with respective Acetate blank buffer, and diluted samples analyzed by HPLC for dissolved quantities of N-(4,5-bis-methanesulfonyl-2-methyl-benzoyl)-guanidine.

[4] = Water Vapour Sorption isotherm (DVS), hygroscopicity acc. to Ph. Eur.; type: physicochemical; details: for Water uptake levels (Water Vapour Sorption): 25° C.
Experimental: As used herein, unless stated otherwise, Water Vapour Sorption isotherm measurements are carried out on a DVS-1 or a DVS-Intrinsic system from SMS.
A second endothermic event occurs at >180° C., which is due to melting of the dehydrated form. This is followed by immediate re-crystallisation (exothermic event), and subsequent melting of the re-crystallized phase at >240° C. […] DSC scan of form HCl-H1 was acquired on a Mettler-Toledo DSC 821 with a heating rate of 5 K/min, using nitrogen purge gas at 50 mL/min. […] Form HCl-H1 can be classified as non-hygroscopic acc. to Ph. Eur. criteria (section 5.11.). […] Water Vapour Sorption isotherm was acquired on a DVS-1 system from SMS. • Dissolution level of form HCl-H1 in Fed-State Simulated Intestinal Fluid [FeSSIF, pH 5.0] at 37° C. was determined to be approx. 1.50 mg/mL (after 15 min), approx. 4.16 mg/mL (after 60 min), and approx. 4.54 mg/mL (after 120 min), respectively (see example 17).

[5] = Thermal behaviour (DSC/TGA), thermal stability; type: physicochemical; details: for Thermal stability (mp/dec): DSC/TGA 5 K/min
Experimental: As used herein, unless stated otherwise, the DSC measurements are carried out using a Mettler-Toledo DSC 821 with a heating rate of 5 K/min, using nitrogen purge gas at 50 mL/min.
As used herein, unless stated otherwise, the TGA measurements are carried out using a Mettler-Toledo TGA 851 with a heating rate of 5 K/min, using nitrogen purge gas at 50 mL/min.

[6] = target: sodium-hydrogen antiporter 1 (NHE-1) (Homo sapiens, UniProt P19634); details: cited from earlier work
sodium-hydrogen antiporter 1 (NHE-1), sequence (P19634 whole entry, species assumed): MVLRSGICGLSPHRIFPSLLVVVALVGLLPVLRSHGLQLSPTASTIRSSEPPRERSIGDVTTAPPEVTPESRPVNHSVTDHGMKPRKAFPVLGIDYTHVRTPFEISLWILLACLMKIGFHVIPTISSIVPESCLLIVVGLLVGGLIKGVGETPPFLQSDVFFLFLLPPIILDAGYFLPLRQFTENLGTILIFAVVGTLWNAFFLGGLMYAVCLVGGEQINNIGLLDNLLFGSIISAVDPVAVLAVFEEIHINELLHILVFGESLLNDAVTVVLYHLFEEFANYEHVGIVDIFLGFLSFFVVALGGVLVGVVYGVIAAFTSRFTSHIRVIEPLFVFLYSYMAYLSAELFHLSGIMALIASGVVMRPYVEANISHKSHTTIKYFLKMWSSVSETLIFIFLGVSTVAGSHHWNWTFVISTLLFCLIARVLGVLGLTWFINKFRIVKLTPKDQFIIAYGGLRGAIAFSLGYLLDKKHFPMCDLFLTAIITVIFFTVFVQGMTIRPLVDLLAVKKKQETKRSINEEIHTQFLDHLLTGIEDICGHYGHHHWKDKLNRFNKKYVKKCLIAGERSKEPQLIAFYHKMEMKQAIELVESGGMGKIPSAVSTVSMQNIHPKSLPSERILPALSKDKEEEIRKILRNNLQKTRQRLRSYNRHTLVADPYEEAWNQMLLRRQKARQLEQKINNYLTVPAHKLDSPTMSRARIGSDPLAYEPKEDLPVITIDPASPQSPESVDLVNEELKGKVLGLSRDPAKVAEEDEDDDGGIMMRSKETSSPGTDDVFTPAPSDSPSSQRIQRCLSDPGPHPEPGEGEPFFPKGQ

[7] = system: animal models of DMD and dilated cardiomyopathy; details: cited from earlier work
[8] = system: monocrotaline-treated rats; details: in vivo; cited from earlier work
[9] = relative humidity range 0-80% rh

| Compound | Proliferation and migration of human PASMCs [1] | Dissolution levels in FeSSIF pH 5.0 ([3]; 5 min) | Dissolution levels in FeSSIF pH 5.0 ([3]; 15 min) | Dissolution levels in FeSSIF pH 5.0 ([3]; 60 min) | Dissolution levels in FeSSIF pH 5.0 ([3]; 120 min) | Dissolution behavior compared to prior-art form HCl-H1 [3] | Hygroscopicity classification acc. to Ph. Eur. criteria (section 5.11.) [4] | Thermal stability (mp/dec) [5] | Water uptake levels (Water Vapour Sorption) [4, 9] | also measured |
| --- | --- | --- | --- | --- | --- | --- | --- | --- | --- | --- |
| N=C(N)NC(=O)c1nc(Cl)c(N)nc1N [Amiloride] | inhibit proliferation and migration |  |  |  |  |  |  |  |  |  |
| CCN(c1nc(N)c(C(=O)NC(=N)N)nc1Cl)C(C)C [EIPA] | inhibit proliferation and migration |  |  |  |  |  |  |  |  | Proliferation and migration [2]: inhibit proliferation and migration |
| Cc1cc(S(C)(=O)=O)c(S(C)(=O)=O)cc1C(=O)NC(=N)N [Phosphate-NF1, N-(4,5-bis-methanesulfonyl-2-methyl-benzoyl)-guanidine] |  | 3.373 mg/mL | 5.92±0.02 mg/mL and 5.919 mg/mL | 6.35±0.02 mg/mL and 6.345 mg/mL | 6.35±0.02 mg/mL and 6.345 mg/mL | improved dissolution behavior | slightly hygroscopic | > 230 °C |  | Water uptake levels (Water Vapour Sorption) ([4]; relative humidity range 0-90% rh): ≤ 1.0 wt %; Tendency to undergo hydrate formation ([4]; upon exposure to elevated RH levels): no tendency to undergo hydrate formation |
| Cc1cc(S(C)(=O)=O)c(S(C)(=O)=O)cc1C(=O)N=C(N)N [Rimeporide, N-(4,5-bismethanesulfonyl-2-methylbenzoyl)guanidine] |  |  |  |  |  |  |  |  |  | Inhibition of NHE-1 [6]: potent and selective inhibitor; Cardioprotective action ([7]; animal models of DMD and dilated cardiomyopathy): good cardioprotective action; Long term accumulation of inflammation and fibrosis ([7]; animal models of DMD, skeletal muscles, the heart and the diaphragm): prevent against the long term accumulation of inflammation and fibrosis |
| N=C(N)NC(=O)c1ccc(N2CCN(C(=O)c3ccc[nH]3)CC2)c(C(F)(F)F)c1 [Sabiporide] | inhibit proliferation and migration |  |  |  |  |  |  |  |  |  |
| Cc1cc(S(C)(=O)=O)c(S(C)(=O)=O)cc1C(=O)NC(=N)N [Succinate-NF1, N-(4,5-bis-methanesulfonyl-2-methyl-benzoyl)-guanidine] |  | 1.105 mg/mL | 3.26±0.02 mg/mL and 3.260 mg/mL | 5.10±0.02 mg/mL and 5.104 mg/mL | 5.03±0.02 mg/mL and 5.032 mg/mL | improved dissolution behavior | non-hygroscopic | > 200 °C | ≤ 0.2 wt % |  |
| Cc1cc(S(C)(=O)=O)c(S(C)(=O)=O)cc1C(=O)NC(=N)N [Sulfate-NF3, N-(4,5-bis-methanesulfonyl-2-methyl-benzoyl)-guanidine] |  | 2.590 mg/mL | 3.70±0.02 mg/mL and 3.703 mg/mL | 4.65±0.02 mg/mL and 4.646 mg/mL | 4.70±0.02 mg/mL and 4.705 mg/mL | improved dissolution behavior | slightly hygroscopic | > 210 °C | ≤ 0.5 wt % |  |
| Cc1cc(S(C)(=O)=O)c(S(C)(=O)=O)cc1C(=O)NC(=N)N [Tosylate-NF1, N-(4,5-bis-methanesulfonyl-2-methyl-benzoyl)-guanidine] |  | 1.961 mg/mL | 4.85±0.02 mg/mL and 4.850 mg/mL | 5.28±0.02 mg/mL and 5.285 mg/mL | 2.86±0.02 mg/mL and 2.859 mg/mL | improved dissolution behavior | slightly hygroscopic |  | 1.0 wt % | Thermally stable up to [5]: ~180 °C |
| CC(C)c1ccc(C(=O)NC(=N)N)cc1S(C)(=O)=O [cariporide] |  |  |  |  |  |  |  |  |  | Development of right heart failure [8]: attenuate the development of right heart failure |
